Measurements as given in patent US11062797B2, “Method and system for obtaining and using pharmacokinetic data in drug administration” (Continuous Precision Medicine, priority 2014, dated 2021).
Where “and” joins values, the source holds several entries; their conditions need not be identical. Equal values may be shown once. Read-outs that look alike come from different tables or passages of the source.

Tests used:
[1] = test system: patients with severe OSA
Description: Ninety-seven (97) patients were enrolled in a prospective study of transoral robotic resection of the tongue base; the examples described below provided a secondary outcome measure of that study. […] The apnea-hypopnea index (AHI) for each patient was recorded from the sleep study. For each patient the saturation nadirs from the sleep study and DISE were paired for statistical analysis. […] The system utilizes the Cortinez pharmacokinetic model (Cortinez et al., Br J Anaesth. 2010; 105:448-56.) and the Johnson pharmacodynamic model (Johnson et al., Anesth Analg. 2008; 106:471-9.) to determine an infusion sequence comprised of a bolus, initial infusion, secondary infusion, and a time for transition from the initial to secondary infusion using the age and weight of the individual patient. This sequence minimizes the difference between the predicted probability of loss of responsiveness and a linear ramp. This is termed probability ramp control (PRC). A brief description of the mathematical approach can be found below. The MATLAB® program (an embodiment of the system) performed the calculations, indicated the time to perform the transition to the second infusion, and logged the time at which obstruction was noted.
All DISE studies were performed in an operating room with standard monitors and resuscitation equipment. A single otorhinolaryngologist performed each nasopharyngoscopy. […] All DISE patients received 2 liters per minute supplemental oxygen via a nasal cannula placed in the mouth. Supplemental oxygen was not used during polysomnography studies (as is typical for this procedure). Pulse oximetry data was recorded for subsequent analysis from a Nellcor pulse oximeter (Covidien, Mansfield, Mass.) at 30-second intervals by the DocuSys anesthesia record keeping system. […] A Baxter AS50 pump (Baxter, Deerfield, Ill.) was programmed with the initial bolus and infusion rates as determined by the control system. […] With the bronchoscope in position to observe the velopharynx, the sedation sequence proceeded until the onset of obstruction was noted. This was identified as the obstruction clinical endpoint. Observation of the pharynx was performed for a sufficient period to obtain images of the anatomic site(s) of obstruction. The infusion was then terminated and the patient allowed to recover. Patient characteristics and derived pharmacokinetic measures were assessed for normal distribution using the Lilliefors test at 5% significance level using the Statistics Toolbox of MATLAB® 8.0 (MathWorks, Natick, Mass.). […] Comparison of saturation nadirs from DISE and polysomnography was performed with both the paired and unpaired Student's t-test. […] No power analysis was performed for this study, as it was a secondary outcome measure for the larger study of transoral robotic surgery.

[2] = test system: patients scheduled for elective esophagogastroduodenoscopy (EGD); details: for Maximum Effect Site: Cortinez model estimate; for Maximum Effect Site / Target Effect Site / Time to target: median (IQR); for Target Effect Site: at loss of responsiveness to nasopharyngeal airway placement; for patients with oxygen saturation values below 90%: 100% oxygen via Robertazzi airway
Description: In addition to ASA standard monitors, respiratory inductance plethysmography (RIP) (Ambulatory Monitoring Inc, Armonk, N.Y.), SEDLine® patient state index (PSI) (Masimo Corp, Irvine, Calif.) and RAD87 pulse oximeter (Masimo Corp, Irvine, Calif.) were applied. All patients received 50 μg of fentanyl immediately prior to initiation of sedation. […] In the experimental arm, patient age and weight were used by the PRC algorithm to calculate bolus, infusion1, infusion2, and time for transition from infusion1 to infusion2. These numbers were reviewed by an investigator prior to initiation of sedation, and when the patient could tolerate airway placement, the software determined the maintenance infusion to maintain the effect-site concentration at the value existing at that time. Custom software written in Labview 2012 (National Instruments, Austin, Tex.) performed these calculations, transmitted the infusion rates to a Graseby 3400 pump (Marcal Medical, Millersville, Md.), and acquired data from the monitors.
All patients were preoxygenated using a Mapleson circuit at oxygen flows greater than 10 liters per minute. Following placement of the Robertazzi airway, the Mapleson circuit was connected to the airway via the connector from an endotracheal tube and the adjustable pressure limit valve closed, assuring continuous flow of 100% oxygen into the hypopharynx.
In experimental patients, the CRNA could request additional boluses or changes in infusion rates as they saw fit. […] This measure is reported in two ways. The first is termed “adjustment dose”, which is the cumulative absolute value of the difference between the intended trajectory and the actual administration. The second is the “intended ratio”, which is the ratio of the dose delivered on the intended trajectory and the actual administration. These measures are depicted in FIG. 7. In FIG. 7, the dotted line indicates the actual infusion rates, while the solid line indicates the intended trajectory (fixing the infusion rate at 300 μg/kg/min).
Ventilatory depression was assessed from respiratory inductance plethysmography signals. The signals were filtered by ensemble empirical mode decomposition employing 450 realizations and noise scaled to 40% of signal power. The dominant mode was used for the Huang-Hilbert Transform (HHT). Minute ventilation was computed as the product of the respiratory rate times the magnitude of volume change at one second intervals. Baseline ventilation was determined from several breaths prior to initiation of sedation; subsequent measurements were normalized by this baseline value. These values were grouped into one minute epochs and the median of values less than 100% obtained. Values above 100% were excluded for two reasons.
Oxygen saturation was acquired from the RAD87 at one second intervals, as was the patient state index. Obvious artifacts such as sensor dislodgement were excluded from analysis. Desaturation is reported as cumulative time below specified saturation in the range from 54% to 90%.
Effect site estimates were calculated using the Cortinez model employing the nominal values, with an adjoined effect compartment. The ke0 was chosen to yield a time to peak effect of 1.6 minutes. MATLAB® code for the state-space implementation of this model with observation of the effect site is available on the OpenTCI website.

[3] = Nominal Cortinez model; cited from earlier work
[4] = test system: DISE patients; details: cited from earlier work; for average time for the procedures: DeVito et al.
[5] = test system: endoscopic sedation patients; details: anesthetist-administered propofol sedation; cited from earlier work

## CC(C)c1cccc(C(C)C)c1O [propofol]
[1]; 2 liters per minute supplemental oxygen, median ± IQR, polysomnography 81.0±11.25%
  median saturation nadir during DISE: 91.4±5.1%
[1]; Cortinez model, ke0 for time to peak effect of 1.6 minutes
  predicted effect-site concentration for obstruction: 4.2 ± 1.3 µg/mL
[1]; DISE, PRC infusion, n=97, median (IQR)
  median time to obstruction: 3.8 (IQR 1.2) minutes
[1]; DISE, PRC infusion, Cortinez model with adjoined effect compartment
  mean predicted effect-site concentration of propofol at obstruction: 4.2 ± 1.3 µg/mL
[1]; DISE, all patients
  adverse events: no adverse events
[1]; control system according to Example 1
  mean time to obstruction: 3.9 min
[1]; oxygen at 2 liters per minute via oral cannula
  lowest saturation measured: 74%
[1]; sub-cohort of 7 patients whose nadir was not lower during polysomnography
  median saturation nadir during DISE: 85%
[2]; Control (CRNA dosing)
  Maximum Effect Site: 6.1 (3.5) μg/ml
  Target Effect Site: 4.8 (1.6) μg/ml
  Time to target: 2 (2.2) min
[2]; Experimental (PRC)
  Maximum Effect Site: 5.3 (4.6) NS μg/ml
  Target Effect Site: 4.9 (2.9) NS μg/ml
  Time to target: 3.9 (1.6) min and 3.9 (1.6) * min
[2]; PRC system versus control
  additional time to achieve endoscope placement: 111 s
[2]; control group (CRNA dosing)
  patients identified at targets below 3.9 μg/ml: No control patients
[2]; control patients
  patients with oxygen saturation values below 90%: 3
[2]; experimental group (PRC)
  patients identified at targets below 3.9 μg/ml: 5/20
  patients with targets below effect-site concentrations of 3.9 μg/ml: 20%
[2]; experimental patients
  patients with oxygen saturation values below 90%: 2
[3]
  Q2: 3.2 L/min
  V3: 53.8 L
[4]; TCI group
  average time for the procedures: 15.2 min
  patients demonstrating sedation instability: 5%
[4]; manual control group
  average time for the procedures: 6.2 min
[4]; manual propofol bolus group
  patients demonstrating sedation instability: 65%
[5]
  BIS values, mean and standard deviation: 72.1±15.1
